In brackets after ≈: the same amount, converted by molar mass.
Experiments:
[1] = tested on: S. aureus OC2878; assay: MIC, microdilution broth method (NCCLS); format: cell-based; settings: Staphylococcus aureus; S. aureus OC2878 (MRSA); 35° C., 16-20 hours; read-out: MIC (μg/mL) in Test Strains S. aureus OC2878
Procedure: (§1) Minimal inhibitory concentration (MIC) has been an indicator of in vitro antibacterial activity widely used in the art. The in vitro antimicrobial activity of the compounds was determined by the microdilution broth method following the test method from the National Committee for Laboratory Standards (NCCLS). This method is described in the NCCLS Document M7-A4, Vol. 17, No. 2, “Methods for Dilution Antimicrobial Susceptibility Test for Bacteria that Grow Aerobically—Fourth Edition”, which is incorporated herein by reference.
(§2) In this method two-fold serial dilutions of drug in cation adjusted Mueller-Hinton broth are added to wells in microdilution trays. The test organisms are prepared by adjusting the turbidity of actively growing broth cultures so that the final concentration of test organism after it is added to the wells is approximately 5×10^4 CFU/well.
(§3) Following inoculation of the microdilution trays, the trays are incubated at 35° C. for 16-20 hours and then read. […] The amount of growth in the wells containing the test compound is compared with the amount of growth in the growth-control wells (no test compound) used in each tray. As set forth in Table 1, some compounds of the present invention were tested against a variety of pathogenic bacteria resulting in a range of activities, from 1 to >128 μg/mL depending on the organism tested. S. aureus OC2878 is a MRSA and E. faecium OC3312 is a vancomycin-resistant enterococcus.

[2] = tested on: E. faecium OC3312; assay: MIC, microdilution broth method (NCCLS); format: cell-based; settings: E. faecium OC3312 (vancomycin-resistant enterococcus); 35° C., 16-20 hours; read-out: MIC (μg/mL) in Test Strains E. faecium OC3312
Procedure: as §1, §2, §3

[3] = tested on: S. aureus OC4172; assay: MIC, microdilution broth method (NCCLS); format: cell-based; settings: Staphylococcus aureus, 35° C., 16-20 hours, read-out: MIC (μg/mL) in Test Strains S. aureus OC4172
Procedure: as §1, §2, §3

Row | Structure (SMILES) | MIC [1] [µg/mL] | MIC [2] [µg/mL] | MIC [3] [µg/mL] | melting point
1 | CC(=O)NC[C@H]1CN(c2ccc(N3CCc4cnccc4C3=O)c(F)c2)C(=O)O1 [Compound 4, acetamide, N-[[(5S)-3-[4-(3,4-dihydro-1-oxo-2,6-naphthyridin-2(1H)-yl)-3-fluorophenyl]-2-oxo-5-oxazolidinyl]methyl]-] | 16 (≈ 40.2 µM) | 32 (≈ 80.3 µM) | 32 (≈ 80.3 µM) | –
2 | CC(=O)NC[C@H]1CN(c2ccc(N3CCc4nc(-c5ccncc5)ncc4C3)c(F)c2)C(=O)O1 [Compound 8, acetamide, N-[[(5S)-3-[4-[7,8-dihydro-2-(4-pyridinyl)pyrido[4,3-d]pyrimidin-6(5H)-yl]-3-fluorophenyl]-2-oxo-5-oxazolidinyl]methyl]-] | 2 (≈ 4.32 µM) | 4 (≈ 8.65 µM) | 2 (≈ 4.32 µM) | –
3 | CC(=O)NC[C@H]1CN(c2ccc(N3CCc4nc(-c5csc(C)n5)ncc4C3)c(F)c2)C(=O)O1 [Compound 7, acetamide, N-[[(5S)-3-[4-[7,8-dihydro-2-(2-methyl-4-thiazolyl)pyrido[4,3-d]pyrimidin-6(5H)-yl]-3-fluorophenyl]-2-oxo-5-oxazolidinyl]methyl]-] | 8 (≈ 16.6 µM) | 8 (≈ 16.6 µM) | 8 (≈ 16.6 µM) | –
4 | CC(=O)NC[C@H]1CN(c2ccc(N3CCc4ccccc4C3)c(F)c2)C(=O)O1 [Compound 2, acetamide, N-[[(5S)-3-[4-(3,4-dihydro-2(1H)-isoquinolinyl)-3-fluorophenyl]-2-oxo-5-oxazolidinyl]methyl]-] | 4 (≈ 10.4 µM) | 8 (≈ 20.9 µM) | 8 (≈ 20.9 µM) | 131 to 134 °C
5 | CC(=O)NC[C@H]1CN(c2ccc(N3CCc4ccncc4C3)c(F)c2)C(=O)O1 [Compound 3, acetamide, N-[[(5S)-3-[4-(3,4-dihydro-2,7-naphthyridin-2(1H)-yl)-3-fluorophenyl]-2-oxo-5-oxazolidinyl]methyl]-] | 4 (≈ 10.4 µM) | 8 (≈ 20.8 µM) | 8 (≈ 20.8 µM) | 141 to 144 °C (dec.)
6 | CC(=O)NC[C@H]1CN(c2ccc(N3CCc4ncncc4C3)c(F)c2)C(=O)O1 [Compound 5, acetamide, N-[[(5S)-3-[4-(7,8-dihydropyrido[4,3-d]pyrimidin-6(5H)-yl)-3-fluorophenyl]-2-oxo-5-oxazolidinyl]methyl]-] | 2 (≈ 5.19 µM) | 8 (≈ 20.8 µM) | 4 (≈ 10.4 µM) | –
7 | CC(=O)NC[C@H]1CN(c2ccc(N3CCc4c(cnn4C)C3)c(F)c2)C(=O)O1 [Compound 11, acetamide, N-[[(5S)-3-[4-(1,4,6,7-tetrahydro-1-methyl-5H-pyrazolo[4,3-c]pyridin-5-yl)-3-fluorophenyl]-2-oxo-5-oxazolidinyl]methyl]-] | 8 (≈ 20.6 µM) | 16 (≈ 41.3 µM) | 16 (≈ 41.3 µM) | –
8 | CC(=O)NC[C@H]1CN(c2ccc(N3CCc4nc(C)ncc4C3)c(F)c2)C(=O)O1 [Compound 6, acetamide, N-[[(5S)-3-[4-(7,8-dihydro-2-methylpyrido[4,3-d]pyrimidin-6(5H)-yl)-3-fluorophenyl]-2-oxo-5-oxazolidinyl]methyl]-] | 2 (≈ 5.01 µM) | 8 (≈ 20 µM) | 4 (≈ 10 µM) | –
9 | O=C1O[C@@H](CO)CN1c1ccc(N2CCc3ccccc3C2)c(F)c1 [Compound 1, 2-oxazolidinone, 3-[4-(3,4-dihydro-2(1H)-isoquinolinyl)-3-fluorophenyl]-5-(hydroxymethyl)-, (5R)-] | 32 (≈ 93.5 µM) | > 128 | 128 (≈ 374 µM) | –
10 | CC(=O)NC[C@H]1CN(c2ccc(N3CCc4nc(-c5cnccn5)ncc4C3)c(F)c2)C(=O)O1 [Compound 9, acetamide, N-[[(5S)-3-[4-(7,8-dihydro-2-pyrazinylpyrido[4,3-d]pyrimidin-6(5H)-yl)-3-fluorophenyl]-2-oxo-5-oxazolidinyl]methyl]-] | 4 (≈ 8.63 µM) | 8 (≈ 17.3 µM) | 4 (≈ 8.63 µM) | –
11 | CC(=O)NC[C@H]1CN(c2ccc(N3CCc4[nH]ncc4C3)c(F)c2)C(=O)O1 [Compound 10, acetamide, N-[[(5S)-3-[4-(1,4,6,7-tetrahydro-5H-pyrazolo[4,3-c]pyridin-5-yl)-3-fluorophenyl]-2-oxo-5-oxazolidinyl]methyl]-] | 8 (≈ 21.4 µM) | 16 (≈ 42.9 µM) | 8 (≈ 21.4 µM) | –

— patent US6951863B2, “Pyridoarylphenly oxazolidinone antibacterials, and related compositions and methods” (Ortho-McNeil Pharmaceutical, Inc., priority 2001, dated 2005)
